System: rat model of streptozotocin (STZ)‐induced diabetic neuropathy
Assay: Acute anti‐allodynic dose‐response after single i.t. injection (von Frey)
Type: in vivo
Settings: for Analgesia 60 min after injection vs vehicle: i.t. doses that reached maximal effect, one‐way ANOVA vs control, n = 3‐4; for Area under the curves, pEC50 ± SEM (M) / Peak analgesic response, pEC50 ± SEM (M): i.t. in 30 μL; for Area under the curves, pEC50 ± SEM (M) / Area under the curves, Relative EMAX ± SEM: analgesic response integrated over time (AUC); for Area under the curves, pEC50 ± SEM (M) / Peak analgesic response, pEC50 ± SEM (M) / Peak analgesic response, Relative EMAX ± SEM: four‐parameter logistic fit; for Area under the curves, pEC50 ± SEM (M) / Peak analgesic response, pEC50 ± SEM (M) / Area under the curves, Relative EMAX ± SEM / Peak analgesic response, Relative EMAX ± SEM: 3‐4 rats/dose; for Peak analgesic response, pEC50 ± SEM (M) / Peak analgesic response, Relative EMAX ± SEM: mechanical withdrawal threshold 30 min after injection; for Area under the curves, Relative EMAX ± SEM / Peak analgesic response, Relative EMAX ± SEM: normalized to maximal asymptote of agonist with largest effect
Excerpt: Adult male Sprague Dawley (SD) rats, weighing 235‐250 g, were purchased from Charles River laboratories and housed in a controlled environment on a 12‐hour light/dark cycle with free access to food and water. All experimental methods and animal care procedures were approved by the Animal Care Committee of University of Montreal (CDEA protocol 15‐013), in accordance with the guiding principles as enunciated by the Canadian Council on Animal Care.
Type I diabetes was induced by systemic injection of streptozotocin (STZ, 65 mg/kg, i.p.) according to a standardized methodology, which allows development of persistent diabetic neuropathy after the first week of treatment. ^20 At the end of the first week, blood was extracted from the tail vein and blood glucose levels were measured with a glucometer (Accu‐Chek Aviva; Roche Diagnostics) prior to evaluation of analgesia on the second week.
Mechanical allodynia is the consequence of maladaptive neuroplasticity following nerve damage. ^24 In a model of diabetic neuropathy as the one used in this study, hyperglycaemia contributes to generate reactive oxygen species which induce microglia activation and inflammatory mediators. ^25 , ^26 These mediators attenuate the activity of Gly/GABA interneurons in superficial layers ^24 , ^27 , ^28 , ^29 and disrupt the inhibitory control that prevents innocuous touch stimuli from producing pain which leads to allodynia. ^30 DOPrs are expressed in these light‐touch mechanoreceptors ^31 and up‐regulated during sensitization, ^32 , ^33 making DOPr agonists elective for relieving this type of pain. Allodynia was evaluated using Von Frey filaments as previously described. ^19 Briefly, rats were accustomed for 15 min on a metal mesh floor under an inverted plastic box (20 × 10 × 10 cm) in a quiet room dedicated to this behavioural test. After habituation, the plantar surface of the right and left hind legs was alternately touched (6‐8 seconds) with von Frey filaments of progressively wider diameter in order to find the threshold of pressure required to produce withdrawal. The mechanical threshold response was obtained by consigning the pressure in grams that would result in withdrawal of the paw in 50% of 10 trials. A normal rat responds to tactile pressures of 12‐15 g whereas neuropathic rats respond to pressures of 4‐6 g. ^24
In a first series of experiments, dose‐response curves to SNC‐80, SB235863, deltorphin II and TIPP were constructed following intrathecal (i.t.) injection of increasing doses until no increment in maximal anti‐allodynic response was observed. […] Each group of rats received only one ligand and a single dose per day. Saturation of the analgesic response on mechanical allodynia required assessing 5‐6 doses per ligand administered over a period of 5‐6 days, using 3‐4 animals/dose. Injections were made at mid‐lumbar level with a needle 23G × 1/2 under light anaesthesia using 4% isoflurane inhalation in a 1:1 mixture of oxygen and air. The animals were allowed to recover for 15 minutes before mechanical thresholds were determined. Threshold measures were repeated every 15 minutes until the analgesic response disappeared. Peak analgesic responses (30 minutes) or responses integrated over time (area under the curve: AUC) were consigned and plotted as a function of treatment dose. Curves were fitted with the four‐parameter logistic equation in GraphPad 7 to yield ED80 and ED50 values that were then used to treat rats for assessment of chronic tolerance. For each drug, the stock solution was prepared as follows: deltorphin II was dissolved in sterile artificial cerebrospinal fluid (CSF); TIPP and SB235863 stocks were dissolved in sterile water and SNC‐80 in DMSO. Each stock solution was diluted in CSF at required concentrations and injected i.t. in a final volume of 30 μL. Control animals were injected with 30 μL of CSF. At the end of behavioural experiments, rats were anaesthetized by isoflurane and killed by decapitation.

[1] = i.t., anti‐allodynic effect, STZ rats

Compound | Analgesia 60 min after injection vs vehicle | Area under the curves, pEC50 ± SEM (M) (STZ rats) | Peak analgesic response, pEC50 ± SEM (M) (STZ rats) | Area under the curves, Relative EMAX ± SEM (i.t., STZ rats) | Peak analgesic response, Relative EMAX ± SEM (i.t., STZ rats) | ED80 derived from dose‐response curves [1] [nmol/30 μL] | ED50 (challenge dose) [1] [nmol/30 μL]
CCC(C)COC(=O)c1[nH]c2c(c1C)CC1C3Cc4ccc(OC)c5c4C1(CCN3C)C2O5.Cl (stereo not drawn) [SB235863, [8R‐(4bS*,8aα,8aβ,12bβ)]7,10‐dimethyl‐1‐methoxy‐11‐(2‐ethylpropyl)oxycarbonyl 5,6,7,8,12,12b‐hexahydro‐(9H)‐4,8‐methanobenzofuro[3,2‐e]pyrrolo[2,3‐g]isoquinoline hydrochloride] | still present | 4.44 ± 0.03 | 4.50 ± 0.05 | 100.6 ± 5.1 | 84.4 ± 8.8 | 1.7 | 
deltorphin II | no longer significantly different from vehicle | 5.09 ± 0.05 | 5.22 ± 0.86 | 80.5 ± 8.0 | 91.0 ± 9.0 | 0.30 | 0.23
C=CCN1C[C@H](C)N([C@H](c2ccc(C(=O)N(CC)CC)cc2)c2cccc(OC)c2)C[C@H]1C [SNC‐80, (+)‐4‐[(αR)‐α‐((2S,5R)‐4‐allyl‐2,5‐dimethyl‐1‐piperazinyl)‐3‐methoxybenzyl]‐N,N‐diethylbenzamide] | no longer significantly different from vehicle | 4.95 ± 0.18 | 5.15 ± 0.06 | 87.9 ± 22.1 | 100 ± 7.8 | 0.55 | 

Reference: PMC7214178, “Ligand‐specific recycling profiles determine distinct potential for chronic analgesic tolerance of delta‐opioid receptor (DOPr) agonists” (Journal of Cellular and Molecular Medicine, 2020)
